# According to patent publication US20130216614A1, “IMMUNOGENIC COMPOSITIONS AND METHODS FOR TREATING NUEROLOGIC DISORDERS” (Glaxosmithkline Biologicals S.A., priority 2010, published 2013):
# Tested on: peripheral blood monocytes
# Experiment: Ex vivo uptake of fluorescent Aβ42 by peripheral blood monocytes from adjuvanted mice
# Assay type: in vivo, C57BL/6 mice
# Conditions: 24 hrs after i.m. injection, FIG. 21; QS21 5 μg
# Excerpt: To begin to examine the function of the increase of monocytes in the peripheral blood, we examined the capacity of those monocytes to uptake Aβ42 in a test tube. In order to measure that phagocytic activity, we have used fluorescent HiLyteFluo Aβ42 (Anaspec Inc).
# We examined the capacity of monocytes to uptake Aβ42 in a test tube. In order to measure that phagocytic activity we have used fluorescent HiLyteFluo Aβ42 (Anaspec Inc).
# Preparation of cells: Peripheral blood was drawn from C57BL/6 mice via cardiac puncture with lithium-heparin as anticoagulant, 24-Hour after injection of the adjuvants used herein. Red blood cell lysis was performed twice on pooled blood with Ammonium Chloride-based Buffer (Sigma, Steinheim, Germany) and cells were counted with the EasyCount™ System (Immunicon). […]
# Samples were acquired on a flow cytometer (BD FACSCanto II) and data analyzed with the FACSDiva software (BD Biosciences).
# Monocytes were identified by their Side/Forward scatter properties, excluding debris and gated as CD3-/CD45R/B220-/Ly-6G-/NK1.1-(Lineage-)/CD11b+ cells. Aβ uptake was assessed by reporting the percentage and Mean Fluorescence Intensity (GeoMean) of positive HiLyte fluor488 Aβ1-42 cells among gated monocytes.
substance,measurement,value
QS21 [reference compound],ex vivo Aβ uptake by mouse peripheral blood monocytes,does not promote
